Values quoted from earlier work, collected in publication PMC9050719 (RSC Advances, 2020).

Assays:
[1] = prodrug of MPA

Row | Bioavailability [1] [%] | Structure (SMILES) | Administered dose giving profound toxicity in mice (mice)
1 |  | COc1c(C)c2c(c(O)c1C/C=C(\C)CCC(=O)O)C(=O)OC2 [MPA, Mycophenolic acid] | over 1000 mg per kg per day
2 | ~90 | COc1c(C)c2c(c(O)c1C/C=C(\C)CCC(=O)OCCN1CCOCC1)C(=O)OC2 [Mycophenolate mofetil] | 
